In brackets after ≈: the same amount, converted by molar mass.
Key:
Mus musculus = assay: In vivo inhibition of MAOA in ICR mouse brain at 20 mg/kg administered via oral gavage using kynuramine dihydrobromide as substrate preincubated for 15 mins followed by substrate addition measured after 30 mins in presence of MAOB inhibitor deprenyl by fluorescence spectrometric method; type: functional
[1] = Antidepressant activity in albino mouse assessed as decrease in immobility time at 10 mg/kg, ip administered 30 mins prior to testing by forced swimming test relative to control; type: functional, organism-based; parameters: scale not given: the % may be the effect or the level left
[2] = Antidepressant activity in albino mouse assessed as immobility time at 10 mg/kg, ip administered 30 mins prior to testing by forced swimming test (reference value: 141 +/- 14.2 secs); type: functional, organism-based
[3] = Antidepressant- like activity in mouse assessed as duration of immobility time at 10 mg/kg, ip by forced swimming test (reference value: 141.5 +/- 10.9 secs); type: functional, organism-based
[4] = Antidepressant- like activity in mouse assessed as duration of immobility time at 10 mg/kg, ip by tail suspension test (reference value: 130.5 +/- 9.6 secs); type: functional, organism-based
[5] = Inhibition of MAO in mouse brain mitochondrial fraction using kynuramine as substrate assessed as formation of 4-hydroxyquinoline by fluorescence spectrometric method; type: tissue-based
[6] = Antidepressant- like activity in Balb/c mouse assessed as immobility time at 10 mg/kg, ip administered 30 mins prior to testing by tail suspension test (reference value: 130.5 +/- 9.6 secs); type: functional, organism-based
[7] = Antidepressant- like activity in Balb/c mouse assessed as immobility time at 10 mg/kg, ip administered 30 mins prior to testing by forced swimming test (reference value: 123.3 +/- 10.7 secs); type: functional, organism-based
[8] = Antidepressant- like activity in Balb/c mouse assessed as immobility time at 5 mg/kg, ip administered 30 mins prior to testing by tail suspension test (reference value: 130.5 +/- 9.6 secs); type: functional, organism-based
[9] = Antidepressant- like activity in Balb/c mouse assessed as immobility time at 5 mg/kg, ip administered 30 mins prior to testing by forced swimming test (reference value: 123.3 +/- 10.7 secs); type: functional, organism-based
[10] = Antidepressant- like activity in Balb/c mouse assessed as immobility time at 1 mg/kg, ip administered 30 mins prior to testing by forced swimming test (reference value: 123.3 +/- 10.7 secs); type: functional, organism-based
[11] = Antidepressant- like activity in Balb/c mouse assessed as immobility time at 1 mg/kg, ip administered 30 mins prior to testing by tail suspension test (reference value: 130.5 +/- 9.6 secs); type: functional, organism-based
[12] = Antidepressant- like activity in mouse assessed as decrease in immobility time at 30 mg/kg, po by tail suspension test relative to control; type: functional, organism-based; parameters: scale not given: the % may be the effect or the level left
[13] = Antidepressant- like activity in mouse assessed as decrease in immobility time at 30 mg/kg, po by forced swimming test relative to control; type: functional, organism-based; parameters: scale not given: the % may be the effect or the level left

O=c1c(O)c(-c2ccc(O)c(O)c2)oc2cc(O)ccc12 [FISETIN]
inhibition in vivo at 20 mg/kg (Mus musculus): 14.7%

COc1cc(C2CC(=O)c3ccc(O)cc3O2)ccc1O (centres undefined)
Activity [1]: 34.6%
TIME [2]: 0.0256 h

CC(C)=CCOc1ccc(C(=O)/C=C/c2c(Cl)cccc2Cl)c(O)c1
TIME [3]: 0.0116 h
TIME [4]: 0.0135 h

O=C1c2c(O)cc(O)cc2O[C@H](c2ccc(O)c(O)c2)[C@H]1O [(+)-TAXIFOLIN]
IC50 [5]: 153.1 µg/mL (≈ 503 µM)

CNCCC(Oc1ccc(C(F)(F)F)cc1)c1ccccc1 (centres undefined)
TIME [6]: 0.021 h
TIME [3]: 0.0174 h
TIME [7]: 0.0229 h
TIME [4]: 0.0112 h
TIME [2]: 0.0195 h

O=c1cc(-c2ccc(O)c(O)c2)oc2cc(O[C@@H]3O[C@H](CO)[C@@H](O)[C@H](O)[C@H]3O)cc(O)c12 [GALUTEOLIN]
IC50 [5]: 118.6 µg/mL (≈ 265 µM)

O=C1CC(c2ccc(Cl)cc2Cl)Oc2cc(O)ccc21 (centres undefined)
Activity [1]: 30.4%

O=C(O)[C@H]1O[C@@H](Oc2cc(O)c3c(=O)cc(-c4ccc(O)cc4)oc3c2)[C@H](O)[C@@H](O)[C@@H]1O
IC50 [5]: 81.7 µg/mL (≈ 183 µM)

CC(C)=CCOc1ccc(C(=O)/C=C/c2ccc3ccccc3c2)c(O)c1
TIME [6]: 0.0241 h
TIME [8]: 0.0217 h
TIME [9]: 0.022 h
TIME [10]: 0.0254 h
TIME [11]: 0.0295 h
TIME [7]: 0.0257 h

COc1ccc(/C=C/C(=O)c2ccc(OCC=C(C)C)cc2O)cc1
Activity [12]: 61%
TIME [3]: 0.0112 h
TIME [4]: 0.0141 h
Activity [13]: 71.4%

CC(C)=CCOc1ccc(C(=O)/C=C/c2cccc(Br)c2)c(O)c1
Activity [12]: 67.6%
TIME [3]: 0.0102 h
TIME [4]: 0.0118 h
Activity [13]: 74.1%

O=C1c2c(O)cc(O)cc2O[C@H](c2ccc(O)cc2)[C@H]1O [DIHYDROKAEMPFEROL]
IC50 [5]: 154.7 µg/mL (≈ 537 µM)
